# Data from US6528095B1, “Anti-atherosclerotic and anti-thrombotic agent and the use thereof” (Potchefstroom University for Christian Higher Education, priority 2000, dated 2003).
# Read-outs that look alike come from different tables or passages of the source.
# Columns and labels:
# [1] = Supplementation in human males: metabolic variables; settings: for ACETATE: acetate level in blood sample; for FFA: free fatty acids; for IR: insulin resistance; for TP: total protein
# Protocol: (§1) The respective effects of pectin and an acetate when administered to the colon of a mammal were determined during a first experiment. The experiment was conducted in the following two phases: [drawing 1]
# (§2) Twenty human males participated in the experimentation and these subjects were not on any medication for any chronic diseases at the time, and also had no history of cardiovascular disease. All the subjects were at the time following a relatively high fibre, low fat diet. During the first phase ten subjects consumed a total of 15 grams of pectin per day in four aliquots, while the other ten consumed a total of 15 grams of placebo (starch) per day in four aliquots.
# (§3) During the second phase, the first group consumed a total of 7.5 grams of calcium acetate per day in four aliquots and the second group consumed a total of 15 grams of pectin per day in four aliquots. The calcium acetate was administered in capsules which were coated with a protective coating comprising a resin known commercially as shellac. This protective coating is resistant to digestion and solution in the stomach and small intestines, is but not resistant to the enzymes of the organisms usually found in the colon, so that the calcium acetate was thus released in the colon.
# (§4) Blood samples where taken from the subjects after each phase and a large number of variables where tested.
# [2] = Pectin / calcium acetate supplementation in human males: body weight and BMI; assay type: in vivo
# fibrin clot [3] = biological target: fibrin clot (Homo sapiens, UniProt P02671+P02675+P02679); settings: in vitro, n = 5
# fibrin clot (Homo sapiens, UniProt P02671+P02675+P02679), sequence (P02671 36-629 limits assumed): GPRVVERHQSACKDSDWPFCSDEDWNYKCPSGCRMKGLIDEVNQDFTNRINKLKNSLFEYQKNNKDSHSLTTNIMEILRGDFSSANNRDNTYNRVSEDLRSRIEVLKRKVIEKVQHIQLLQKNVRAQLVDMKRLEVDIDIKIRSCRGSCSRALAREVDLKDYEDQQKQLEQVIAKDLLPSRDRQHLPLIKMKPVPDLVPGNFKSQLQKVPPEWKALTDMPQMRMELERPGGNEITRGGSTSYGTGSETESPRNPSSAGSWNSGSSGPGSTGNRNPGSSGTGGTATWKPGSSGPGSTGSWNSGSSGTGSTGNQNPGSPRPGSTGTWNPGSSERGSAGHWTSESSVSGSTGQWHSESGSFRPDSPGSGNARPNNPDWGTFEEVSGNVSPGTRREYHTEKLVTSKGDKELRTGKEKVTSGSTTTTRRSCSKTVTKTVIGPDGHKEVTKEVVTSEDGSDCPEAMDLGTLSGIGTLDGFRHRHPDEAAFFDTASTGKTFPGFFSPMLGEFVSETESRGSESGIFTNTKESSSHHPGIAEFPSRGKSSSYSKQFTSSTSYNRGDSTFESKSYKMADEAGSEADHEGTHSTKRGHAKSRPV
# fibrin clot (Homo sapiens, UniProt P02671+P02675+P02679), sequence (P02675 45-491 limits assumed): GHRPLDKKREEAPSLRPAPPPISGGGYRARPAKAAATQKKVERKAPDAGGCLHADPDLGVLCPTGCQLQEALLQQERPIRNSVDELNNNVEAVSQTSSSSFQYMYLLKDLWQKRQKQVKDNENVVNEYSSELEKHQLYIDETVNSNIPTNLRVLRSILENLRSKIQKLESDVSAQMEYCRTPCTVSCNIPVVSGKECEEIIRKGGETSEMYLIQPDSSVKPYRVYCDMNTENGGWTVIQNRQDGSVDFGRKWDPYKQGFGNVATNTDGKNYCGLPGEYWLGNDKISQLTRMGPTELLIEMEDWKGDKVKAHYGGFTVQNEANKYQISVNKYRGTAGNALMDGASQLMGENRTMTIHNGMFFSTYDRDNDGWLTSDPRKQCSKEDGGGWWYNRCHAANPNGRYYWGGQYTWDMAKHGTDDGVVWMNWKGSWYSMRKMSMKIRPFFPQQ
# fibrin clot (Homo sapiens, UniProt P02671+P02675+P02679), sequence (P02679 27-437 isoform P02679-2 limits assumed): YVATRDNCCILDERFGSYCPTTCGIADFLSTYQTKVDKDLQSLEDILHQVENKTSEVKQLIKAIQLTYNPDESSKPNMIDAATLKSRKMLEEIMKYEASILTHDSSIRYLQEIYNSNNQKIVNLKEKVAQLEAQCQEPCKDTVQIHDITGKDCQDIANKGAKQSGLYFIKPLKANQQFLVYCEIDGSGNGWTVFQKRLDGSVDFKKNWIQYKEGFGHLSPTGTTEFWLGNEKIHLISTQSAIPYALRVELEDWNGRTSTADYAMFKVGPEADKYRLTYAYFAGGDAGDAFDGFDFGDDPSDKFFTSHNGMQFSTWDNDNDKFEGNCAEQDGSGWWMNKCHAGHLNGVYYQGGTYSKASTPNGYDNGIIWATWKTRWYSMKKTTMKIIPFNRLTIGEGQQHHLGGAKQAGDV
# fibrin = fibrin (Homo sapiens, UniProt P02671+P02675+P02679); settings: progressive increase in acetate, FIG. 2
# fibrin, sequence (P02671 36-629 limits assumed): as the sequence (P02671 36-629 limits assumed) above
# fibrin, sequence (P02675 45-491 limits assumed): as the sequence (P02675 45-491 limits assumed) above
# fibrin, sequence (P02679 27-437 isoform P02679-2 limits assumed): as the sequence (P02679 27-437 isoform P02679-2 limits assumed) above
# Description: FIG. 2 is a urbidity curve of fibrin formation in the presence of different acetate concentrations; and
# Referring to FIG. 2, the kinetics of network growth were subsequently investigated by continuously recording changes in turbidity at 608 nm, during network development under identical experimental conditions.
# fibrin clot [4] = test: Supplementation in human males: haemostatic variables and characteristics of fibrin networks developed in plasma; assay type: in vivo; settings: for CLOT (FIBRIN): clot fibrin content; for LYSIS TIME (t 50%) / Permeability: clot; for COMPACTION: fibrin clot; for MPC: macromolecular protein complex; for μ,: mass length ratio from turbidity; for FIBRINOGEN: plasma
# Protocol: as §1, §2, §3, §4
# [5] = Supplementation in human males: haemorheological variables (haematocrit, haemoglobin, plasma viscosity); assay type: in vivo; settings: for VISCOSITY: plasma
# Protocol: as §1, §2, §3, §4
# blood lipids [6] = test: Supplementation in human males: lipid variables; assay type: in vivo; settings: for TC: total cholesterol; for TG: triglycerides
# Protocol: as §1, §2, §3, §4
# blood lipids [7] = settings: for % Inhibition / [Hydroperoxide]: in vitro; for [Hydroperoxide]: n = 5
# [8] = Pectin / calcium acetate supplementation in human males: body weight and BMI; assay type: in vivo; remark: listed apart in the source
# Description: The acetate supplement (phase 2), however, caused a decrease (from 88.16±12.35 kg to 83.09±10.80 kg) in body weight. Although this decrease may not be of statistical significance, it can be clinically significant in the cases of those subjects who lost weight.
# [9] = phase 2, end of supplementation (pectin 15 g/day; calcium acetate 7.5 g/day)
compound,measurement,setting,value
"CC(=O)[O-].CC(=O)[O-].[Ca+2] [ACETATE, calcium acetate]",ACETATE,"[1]; phase 2, baseline",37.63 µmol/L
same,ACETATE,[1]; [9],54.31 ± μmol/l
same,FFA,"[1]; phase 2, baseline",0.59 mmol/L
same,FFA,[1]; [9],0.45 ± mmol/l
same,IR,"[1]; phase 2, baseline",3.22
same,IR,[1]; [9],2.93
same,ALBUMIN,"[1]; phase 2, baseline",43.09 g/L
same,GLUCOSE,"[1]; phase 2, baseline",3.58 mmol/L
same,INSULIN,"[1]; phase 2, baseline",8.96 μU/ml
same,PPA/ALB,"[1]; phase 2, baseline",13.69 × 10^1
same,ALBUMIN,[1]; [9],45.50 g/L
same,GLUCOSE,[1]; [9],3.78 mmol/L
same,INSULIN,[1]; [9],7.61 μU/ml
same,PPA/ALB,[1]; [9],9.89 ± × 10^1
same,TP,"[1]; phase 2, baseline",71.69 g/L
same,TP,[1]; [9],71.52 g/L
same,BODY WEIGHT,"[2]; phase 2, baseline",88.16 ± 12.35 kg
same,BODY WEIGHT,"[2]; phase 2, baseline, listed as PLACEBO",88.16 kg
same,decrease in body weight,"[2]; phase 2, clinically significant but statistically insignificant",5.07 kg
same,BODY WEIGHT,[2]; [9],83.09 ± 10.80 kg
same,BODY WEIGHT,"[2]; phase 2, end of supplementation (pectin 15 g/day; calcium acetate 7.5 g/day), listed as PLACEBO",83.04 kg
same,Clot [FIBRlN],fibrin clot [3]; 75 μmol/L acetate,1.36 ± 0.03 g/L
same,Permeability,fibrin clot [3]; 75 μmol/L acetate,110.4 ± 5.17 × 10^11 cm^2
same,μT,fibrin clot [3]; 75 μmol/L acetate,17.44 ± 0.20 daltons/cm × 10^12
same,Clot [FIBRlN],fibrin clot [3]; 100 μmol/L acetate,1.37 ± 0.07 g/L
same,Permeability,fibrin clot [3]; 100 μmol/L acetate,118.0 ± 6.03 × 10^11 cm^2
same,μT,fibrin clot [3]; 100 μmol/L acetate,17.95 ± 0.22 daltons/cm × 10^12
same,Clot [FIBRlN],fibrin clot [3]; 150 μmol/L acetate,1.39 ± 0.05 g/L
same,Permeability,fibrin clot [3]; 150 μmol/L acetate,134.0 ± 5.02 × 10^11 cm^2
same,μT,fibrin clot [3]; 150 μmol/L acetate,19.51 ± 0.17 daltons/cm × 10^12
same,kinetics of network growth (turbidity at 608 nm),fibrin,enhanced the entire kinetics
same,CLOT (FIBRIN),"fibrin clot [4]; phase 2, baseline",2.00 g/L
same,CLOT (FIBRIN),fibrin clot [4]; [9],1.62 ± g/l
same,LYSIS TIME (t 50%),"fibrin clot [4]; phase 2, baseline",251.9
same,Permeability,"fibrin clot [4]; phase 2, baseline",212.52 × 10^11 cm^3
same,LYSIS TIME (t 50%),fibrin clot [4]; [9],130.3 ±
same,Permeability,fibrin clot [4]; [9],306.81 ± × 10^11 cm^3
same,COMPACTION,"fibrin clot [4]; phase 2, baseline",22.47%
same,COMPACTION,fibrin clot [4]; [9],32.21 ± %
same,MPC,"fibrin clot [4]; phase 2, baseline",0.1146 g/L
same,MPC,fibrin clot [4]; [9],0.0852 ± g/l
same,"μ,","fibrin clot [4]; phase 2, baseline",22.93 Dal/cm × 10^12
same,"μ,",fibrin clot [4]; [9],34.28 ± Dal/cm × 10^12
same,decrease in the total plasma fibrinogen concentration,"fibrin clot [4]; phase 2, acetate supplementation, not significant",11.2%
same,FIBRINOGEN,"fibrin clot [4]; phase 2, baseline",4.10 g/L
same,FIBRINOGEN,fibrin clot [4]; [9],3.64 g/L
same,HAEMATOCRIT,"[5]; phase 2, baseline",48.55%
same,HAEMOGLOBIN,"[5]; phase 2, baseline",11.12 mmol/L
same,HAEMATOCRIT,[5]; [9],46.83 ± %
same,HAEMOGLOBIN,[5]; [9],10.48 mmol/L
same,VISCOSITY,"[5]; phase 2, baseline",1.92 cP
same,VISCOSITY,[5]; [9],1.61 ± cP
same,% HDL-C,"blood lipids [6]; phase 2, baseline",17.04%
same,ApoA,"blood lipids [6]; phase 2, baseline",1.50 mmol/L
same,ApoB,"blood lipids [6]; phase 2, baseline",1.47 mmol/L
same,H2O3,"blood lipids [6]; phase 2, baseline",1.27 µM
same,HDL-C,"blood lipids [6]; phase 2, baseline",1.11 mmol/L
same,LDL-C,"blood lipids [6]; phase 2, baseline",4.97 ± mmol/l
same,TBARM,"blood lipids [6]; phase 2, baseline",1.47 µM
same,% HDL-C,blood lipids [6]; [9],20.32 ± %
same,ApoA,blood lipids [6]; [9],1.40 ± mmol/l
same,ApoB,blood lipids [6]; [9],1.34 ± mmol/l
same,H2O3,blood lipids [6]; [9],0.81 ± μM
same,HDL-C,blood lipids [6]; [9],1.18 mmol/L
same,LDL-C,blood lipids [6]; [9],4.20 ± mmol/l
same,TBARM,blood lipids [6]; [9],1.07 µM
same,TC,"blood lipids [6]; phase 2, baseline",6.55 mmol/L
same,TC,blood lipids [6]; [9],5.81 ± mmol/l
same,TG,"blood lipids [6]; phase 2, baseline",0.65 mmol/L
same,TG,blood lipids [6]; [9],1.33 ± mmol/l
same,% Inhibition,blood lipids [7]; 0.05 mmol/L (50 μM) acetate,46.97%
same,[Hydroperoxide],blood lipids [7]; 0.05 mmol/L acetate,4.46 ± 0.15 × 10^−6 M
same,% Inhibition,blood lipids [7]; 0.10 mmol/L (100 μM) acetate,56.01%
same,[Hydroperoxide],blood lipids [7]; 0.10 mmol/L acetate,3.70 ± 0.22 × 10^−6 M
same,% Inhibition,blood lipids [7]; 0.20 mmol/L (200 μM) acetate,67.11%
same,[Hydroperoxide],blood lipids [7]; 0.20 mmol/L acetate,3.04 ± 0.23 × 10^−6 M
same,% Inhibition,blood lipids [7]; 0.30 mmol/L (300 μM) acetate,73.12%
same,[Hydroperoxide],blood lipids [7]; 0.30 mmol/L acetate,2.26 ± 0.16 × 10^−6 M
same,minium inhibition: decrease of peroxidation in vitro from linear regression analysis,"blood lipids [7]; r=0.98, m=−0.836",56.12%
same,BMI,"[8]; phase 2, baseline",26.90 kg/m^2
same,BMI,[8]; [9],25.65 kg/m^2
